In ChEMBL document CHEMBL5291721, “A preclinical secondary pharmacology resource illuminates target-adverse drug reaction associations of marketed drugs” (Nat Commun, 2023) one finds AC50 data, which are given here for 14 compounds.

Assay [1] deals with T1, 5-hydroxytryptamine receptor 1A (Homo sapiens, UniProt P08908).
T1 sequence (P08908 whole entry): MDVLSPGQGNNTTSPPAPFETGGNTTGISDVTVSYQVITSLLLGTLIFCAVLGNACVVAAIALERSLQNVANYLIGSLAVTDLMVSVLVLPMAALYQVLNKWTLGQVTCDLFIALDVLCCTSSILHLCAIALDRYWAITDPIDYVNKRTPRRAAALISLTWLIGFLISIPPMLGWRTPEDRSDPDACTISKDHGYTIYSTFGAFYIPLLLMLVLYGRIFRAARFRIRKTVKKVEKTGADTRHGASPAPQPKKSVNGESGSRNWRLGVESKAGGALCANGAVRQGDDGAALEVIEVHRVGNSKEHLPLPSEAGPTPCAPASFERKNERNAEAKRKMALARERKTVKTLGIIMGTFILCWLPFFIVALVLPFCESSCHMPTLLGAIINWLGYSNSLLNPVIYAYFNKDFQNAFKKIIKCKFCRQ

Assay [2] addresses T2, Gamma-aminobutyric acid receptor subunit alpha-1 (Rattus norvegicus, UniProt P62813).
For another assay, the target named is D(3) dopamine receptor (Homo sapiens, UniProt P35462).
In assay [3] the target is 5-hydroxytryptamine receptor 2B (Homo sapiens, UniProt P41595). The assay is classed as functional, cell-based.
Assay [4] deals with T2, Gamma-aminobutyric acid receptor subunit alpha-1. The assay is classed as functional.
Another assay has as its target Motilin receptor (Homo sapiens, UniProt O43193).
For assay [5], the target named is Sodium-dependent dopamine transporter (Homo sapiens, UniProt Q01959).
For assay [6], the target named is T2, Gamma-aminobutyric acid receptor subunit alpha-1. The source holds these as a separate data set.
The target in assay [7] is Delta-type opioid receptor (Homo sapiens, UniProt P41143).
Assay [8] addresses T3, Adenosine receptor A3 (Homo sapiens, UniProt P0DMS8).
T3 sequence (P0DMS8 whole entry): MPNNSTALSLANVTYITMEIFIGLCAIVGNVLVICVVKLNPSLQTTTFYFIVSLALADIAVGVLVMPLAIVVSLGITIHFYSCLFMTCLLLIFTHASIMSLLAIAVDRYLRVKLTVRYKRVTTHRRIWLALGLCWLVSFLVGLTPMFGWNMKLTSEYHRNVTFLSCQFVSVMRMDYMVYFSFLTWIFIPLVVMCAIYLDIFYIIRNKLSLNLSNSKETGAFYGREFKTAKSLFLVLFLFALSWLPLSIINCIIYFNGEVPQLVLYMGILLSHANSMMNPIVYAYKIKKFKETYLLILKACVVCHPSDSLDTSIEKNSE

For a further assay, the target named is D(1A) dopamine receptor (Homo sapiens, UniProt P21728). The assay is classed as functional, cell-based.
Assay [9] has as its target T4, Amine oxidase [flavin-containing] A (Homo sapiens, UniProt P21397).
T4 sequence (P21397 whole entry): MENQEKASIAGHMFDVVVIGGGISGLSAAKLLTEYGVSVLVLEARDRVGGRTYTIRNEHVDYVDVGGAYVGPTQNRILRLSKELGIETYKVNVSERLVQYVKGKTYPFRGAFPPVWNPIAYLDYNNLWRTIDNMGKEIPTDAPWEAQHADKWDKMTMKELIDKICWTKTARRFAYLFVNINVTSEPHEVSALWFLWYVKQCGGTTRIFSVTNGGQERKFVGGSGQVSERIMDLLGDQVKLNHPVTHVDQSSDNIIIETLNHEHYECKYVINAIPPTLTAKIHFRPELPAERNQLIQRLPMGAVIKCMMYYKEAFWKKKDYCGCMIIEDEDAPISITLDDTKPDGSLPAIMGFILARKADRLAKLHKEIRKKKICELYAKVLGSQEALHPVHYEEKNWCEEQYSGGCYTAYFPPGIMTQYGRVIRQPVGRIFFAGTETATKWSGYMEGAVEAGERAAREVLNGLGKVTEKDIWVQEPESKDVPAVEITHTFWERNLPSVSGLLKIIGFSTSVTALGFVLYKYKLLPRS
The assay is classed as functional.

The target in assay [10] is T1, 5-hydroxytryptamine receptor 1A. The assay is classed as functional, cell-based.
The target of assay [11] is T5, Alpha-2A adrenergic receptor (Homo sapiens, UniProt P08913).
T5 sequence (P08913 whole entry): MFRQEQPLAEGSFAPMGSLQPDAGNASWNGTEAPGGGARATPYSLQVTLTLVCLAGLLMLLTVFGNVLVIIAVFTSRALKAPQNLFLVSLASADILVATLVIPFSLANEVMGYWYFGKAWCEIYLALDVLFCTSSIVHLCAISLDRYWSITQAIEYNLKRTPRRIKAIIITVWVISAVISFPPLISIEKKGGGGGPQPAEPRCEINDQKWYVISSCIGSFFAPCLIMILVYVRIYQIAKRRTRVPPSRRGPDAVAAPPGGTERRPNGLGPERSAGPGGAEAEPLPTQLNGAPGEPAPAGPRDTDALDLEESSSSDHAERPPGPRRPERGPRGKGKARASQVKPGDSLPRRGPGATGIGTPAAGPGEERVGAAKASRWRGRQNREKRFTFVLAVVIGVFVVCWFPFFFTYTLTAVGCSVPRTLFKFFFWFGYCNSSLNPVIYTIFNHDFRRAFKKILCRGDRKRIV
The assay is classed as functional, cell-based.

The next assay deals with Histamine H2 receptor (Homo sapiens, UniProt P25021). The assay is classed as functional, cell-based.
Assay [12] addresses T3, Adenosine receptor A3. The source holds these as a separate data set.

Bounds are passed on as bounds.
Also: assay procedure not described here.

Sequence of Delta-type opioid receptor (P41143 whole entry): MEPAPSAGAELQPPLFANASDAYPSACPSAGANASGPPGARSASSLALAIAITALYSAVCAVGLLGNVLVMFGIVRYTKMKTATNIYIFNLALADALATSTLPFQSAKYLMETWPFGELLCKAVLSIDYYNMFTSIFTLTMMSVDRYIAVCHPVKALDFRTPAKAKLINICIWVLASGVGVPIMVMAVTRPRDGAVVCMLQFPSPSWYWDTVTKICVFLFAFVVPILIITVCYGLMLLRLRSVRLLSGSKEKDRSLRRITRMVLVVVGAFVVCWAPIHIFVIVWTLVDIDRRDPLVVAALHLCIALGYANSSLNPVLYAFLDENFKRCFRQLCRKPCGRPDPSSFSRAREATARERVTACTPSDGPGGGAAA
Sequence of Sodium-dependent dopamine transporter (Q01959 whole entry): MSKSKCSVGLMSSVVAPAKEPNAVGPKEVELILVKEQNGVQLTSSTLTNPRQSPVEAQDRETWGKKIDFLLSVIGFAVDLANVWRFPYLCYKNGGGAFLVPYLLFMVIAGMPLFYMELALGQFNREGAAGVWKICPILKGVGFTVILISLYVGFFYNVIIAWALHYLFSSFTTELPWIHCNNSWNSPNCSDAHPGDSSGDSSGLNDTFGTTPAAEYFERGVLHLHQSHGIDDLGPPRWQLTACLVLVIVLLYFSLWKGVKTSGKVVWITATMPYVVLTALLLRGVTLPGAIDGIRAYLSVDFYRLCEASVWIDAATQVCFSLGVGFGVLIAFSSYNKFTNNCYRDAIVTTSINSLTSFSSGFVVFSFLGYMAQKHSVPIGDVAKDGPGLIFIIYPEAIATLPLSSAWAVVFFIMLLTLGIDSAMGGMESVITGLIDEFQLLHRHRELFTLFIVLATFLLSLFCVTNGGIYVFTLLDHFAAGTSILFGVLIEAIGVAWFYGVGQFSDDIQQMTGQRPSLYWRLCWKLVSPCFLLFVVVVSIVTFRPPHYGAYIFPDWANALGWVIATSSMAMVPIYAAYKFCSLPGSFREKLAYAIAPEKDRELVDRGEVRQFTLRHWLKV
Sequence of 5-hydroxytryptamine receptor 2B (P41595 whole entry): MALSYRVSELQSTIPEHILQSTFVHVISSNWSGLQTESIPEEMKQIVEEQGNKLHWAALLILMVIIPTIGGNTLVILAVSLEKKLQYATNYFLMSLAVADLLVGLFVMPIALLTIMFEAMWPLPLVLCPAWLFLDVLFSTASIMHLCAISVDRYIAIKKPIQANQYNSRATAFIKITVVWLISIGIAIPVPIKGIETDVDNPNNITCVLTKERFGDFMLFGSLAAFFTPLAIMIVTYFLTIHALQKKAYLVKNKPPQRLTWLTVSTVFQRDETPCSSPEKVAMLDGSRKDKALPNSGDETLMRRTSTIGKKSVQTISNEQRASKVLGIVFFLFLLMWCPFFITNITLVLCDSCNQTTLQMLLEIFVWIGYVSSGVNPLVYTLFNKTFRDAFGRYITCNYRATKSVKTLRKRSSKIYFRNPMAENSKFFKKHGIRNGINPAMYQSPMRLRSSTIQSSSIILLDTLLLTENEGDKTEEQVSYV
T2 sequence (P62813 whole entry): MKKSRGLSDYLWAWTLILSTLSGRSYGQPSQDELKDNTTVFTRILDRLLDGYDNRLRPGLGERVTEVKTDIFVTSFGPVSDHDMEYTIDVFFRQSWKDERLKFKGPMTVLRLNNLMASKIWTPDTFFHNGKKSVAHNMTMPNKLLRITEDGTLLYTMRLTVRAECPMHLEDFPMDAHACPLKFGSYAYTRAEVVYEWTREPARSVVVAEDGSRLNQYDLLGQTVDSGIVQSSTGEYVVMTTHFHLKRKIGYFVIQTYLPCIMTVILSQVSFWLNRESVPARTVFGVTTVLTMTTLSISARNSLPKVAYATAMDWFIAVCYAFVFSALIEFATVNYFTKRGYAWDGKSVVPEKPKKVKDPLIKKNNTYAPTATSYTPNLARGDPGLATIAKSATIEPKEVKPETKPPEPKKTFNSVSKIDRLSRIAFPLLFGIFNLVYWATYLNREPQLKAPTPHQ
Sequence of Motilin receptor (O43193 whole entry): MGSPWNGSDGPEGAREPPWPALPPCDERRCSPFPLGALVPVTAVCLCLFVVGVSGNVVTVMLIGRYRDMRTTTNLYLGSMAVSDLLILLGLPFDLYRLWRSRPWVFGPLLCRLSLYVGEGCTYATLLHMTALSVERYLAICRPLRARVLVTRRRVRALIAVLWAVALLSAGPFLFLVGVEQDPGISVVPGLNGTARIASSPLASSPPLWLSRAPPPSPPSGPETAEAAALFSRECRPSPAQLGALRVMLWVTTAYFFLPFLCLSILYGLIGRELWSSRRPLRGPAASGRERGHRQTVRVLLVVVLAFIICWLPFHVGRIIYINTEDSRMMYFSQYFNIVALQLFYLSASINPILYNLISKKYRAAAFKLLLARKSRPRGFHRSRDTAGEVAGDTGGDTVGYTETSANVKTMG
Sequence of Histamine H2 receptor (P25021 whole entry): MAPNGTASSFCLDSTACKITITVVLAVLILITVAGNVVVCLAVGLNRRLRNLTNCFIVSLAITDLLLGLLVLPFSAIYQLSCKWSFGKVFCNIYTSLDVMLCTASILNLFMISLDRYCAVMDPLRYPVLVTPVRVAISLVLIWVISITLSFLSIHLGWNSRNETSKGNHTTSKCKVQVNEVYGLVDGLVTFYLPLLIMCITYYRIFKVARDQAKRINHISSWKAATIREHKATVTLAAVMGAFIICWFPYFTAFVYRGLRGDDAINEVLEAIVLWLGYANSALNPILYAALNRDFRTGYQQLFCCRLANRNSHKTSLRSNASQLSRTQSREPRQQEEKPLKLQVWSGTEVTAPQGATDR
Sequence of D(3) dopamine receptor (P35462 whole entry): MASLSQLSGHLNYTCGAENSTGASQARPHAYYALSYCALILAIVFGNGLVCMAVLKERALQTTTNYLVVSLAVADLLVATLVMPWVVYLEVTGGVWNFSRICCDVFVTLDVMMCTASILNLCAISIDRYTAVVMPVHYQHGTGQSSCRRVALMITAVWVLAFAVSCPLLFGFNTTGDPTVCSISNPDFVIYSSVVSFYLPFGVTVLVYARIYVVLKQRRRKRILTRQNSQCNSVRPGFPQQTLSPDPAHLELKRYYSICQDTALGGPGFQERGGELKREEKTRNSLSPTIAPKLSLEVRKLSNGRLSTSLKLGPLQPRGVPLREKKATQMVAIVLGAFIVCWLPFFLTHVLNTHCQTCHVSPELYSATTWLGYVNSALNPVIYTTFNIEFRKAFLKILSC
Sequence of D(1A) dopamine receptor (P21728 whole entry): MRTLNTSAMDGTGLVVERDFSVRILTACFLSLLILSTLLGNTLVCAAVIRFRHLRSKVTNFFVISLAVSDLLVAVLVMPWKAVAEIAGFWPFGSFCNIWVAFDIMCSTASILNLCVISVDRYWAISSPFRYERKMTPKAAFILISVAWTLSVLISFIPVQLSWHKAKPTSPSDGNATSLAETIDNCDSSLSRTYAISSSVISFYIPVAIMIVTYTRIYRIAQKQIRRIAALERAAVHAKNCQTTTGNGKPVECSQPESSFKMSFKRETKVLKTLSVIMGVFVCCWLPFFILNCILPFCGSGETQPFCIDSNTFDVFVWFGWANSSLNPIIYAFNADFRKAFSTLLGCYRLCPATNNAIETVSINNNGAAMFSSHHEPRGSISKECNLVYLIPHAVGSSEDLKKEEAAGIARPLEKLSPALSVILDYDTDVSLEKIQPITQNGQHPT

`CCCCCCCC(=O)N[C@H](CN1CCCC1)[C@H](O)c1ccc2c(c1)OCCO2`: the AC50 is 14.3 µM in [1], more than 30 µM in assay [2], more than 30 µM at D(3) dopamine receptor and more than 30 µM in assay [3].

In the case of `C[C@]1(COc2ccc(N3CCC(Oc4ccc(OC(F)(F)F)cc4)CC3)cc2)Cn2cc([N+](=O)[O-])nc2O1`, the concentration at half-maximal activity (AC50) in assay [4] is more than 10 µM; in [1], more than 30 µM; on Motilin receptor, more than 10 µM; in assay [5] it was more than 10 µM; in assay [2] it was more than 30 µM; in [6], more than 10 µM. The AC50 (in [7]; at D(3) dopamine receptor; on Adenosine receptor A3 [8]; in assay [3]) was more than 30 µM throughout.

Turning to `CC(=O)OCC[N+](C)(C)C` [ACETYLCHOLINE], the AC50 in assay [4] was more than 10 µM; at D(1A) dopamine receptor, more than 10 µM; in assay [1] it was more than 30 µM; at Motilin receptor, more than 30 µM; in assay [9] it was more than 10 µM; in assay [5], more than 30 µM. Further, the AC50 is more than 30 µM in assay [2]; more than 10 µM in assay [6]; more than 10 µM in [7]; 0.15 µM in [10]; more than 30 µM at D(3) dopamine receptor; more than 10 µM in assay [11]. In addition, the values for the AC50 (at Adenosine receptor A3 [8]; on Histamine H2 receptor; in assay [3]) were more than 30 µM, more than 10 µM and more than 30 µM, respectively.

Consider `O=C(Nc1nc(-c2cc(Cl)cs2)c(N2CCN(C3CCCCC3)CC2)s1)c1cnc(N2CCC(C(=O)O)CC2)c(Cl)c1` [AVATROMBOPAG], for which the AC50 in assay [4] was more than 10 µM; in assay [1], more than 30 µM; at Motilin receptor, more than 10 µM; in assay [5], more than 10 µM; in assay [2], more than 30 µM; in assay [6], more than 10 µM. Further, the AC50 in [7] is more than 10 µM; at D(3) dopamine receptor, more than 30 µM; on Adenosine receptor A3 [8], more than 10 µM; in assay [3], more than 30 µM.

In the case of `C[C@@H](O)[C@H]1C(=O)N2C(C(=O)[O-])=C(SC3Cn4cnc[n+]4C3)[C@H](C)[C@H]12` (stereo not given in full) [BIAPENEM], the AC50 (in assay [1]; in [2]; at D(3) dopamine receptor; in assay [3]) was more than 30 µM throughout.

Regarding `CO[C@@]1(NC(=O)CSCC#N)C(=O)N2C(C(=O)O)=C(CSc3nnnn3C)CS[C@@H]21` [CEFMETAZOLE], the concentration at half-maximal activity (AC50) (in assay [4]; on D(1A) dopamine receptor; in assay [1]; in assay [9]; in [2]; in assay [7]) was more than 30 µM in each case. Moreover, the AC50 (in assay [10]; at D(3) dopamine receptor; in [11]; on Histamine H2 receptor; in [3]) was more than 30 µM each time.

On to `CO/N=C(\C(=O)N[C@@H]1C(=O)N2C(C(=O)[O-])=C(C[n+]3cccc4c3CCC4)CS[C@H]12)c1csc(N)n1` [CEFPIROME], for which the concentration at half-maximal activity (AC50) (in assay [4]; at D(1A) dopamine receptor; in [1]; in assay [9]; in assay [2]; in assay [6]) was more than 30 µM throughout. The AC50 (in assay [7]; in assay [10]; at D(3) dopamine receptor; in assay [11]; on Histamine H2 receptor; in [3]) was more than 30 µM throughout.

As to `Oc1c(I)cc(Cl)c2cccnc12` [CLIOQUINOL], the AC50 (in assay [4]; on D(1A) dopamine receptor; in assay [1]; in [9]; in [2]; in [6]) was more than 30 µM in each case. For the same compound, the AC50 is more than 30 µM in [7]; more than 30 µM in assay [10]; more than 10 µM on D(3) dopamine receptor; more than 30 µM in assay [11]; more than 30 µM on Histamine H2 receptor; more than 30 µM in assay [3].

As to `Nc1ccncc1` [DALFAMPRIDINE], the AC50 (in [1]; on Adenosine receptor A3 [12]; on D(3) dopamine receptor; in [3]) was more than 30 µM each time.

`CCC(=O)O[C@@H]1CC(=O)O[C@H](C)C/C=C/C=C/[C@H](OC(C)=O)[C@H](C)C[C@H](CC=O)[C@H](O[C@@H]2O[C@H](C)[C@@H](O[C@H]3C[C@@](C)(OC(C)=O)[C@@H](OC(=O)CC)[C@H](C)O3)[C@H](N(C)C)[C@H]2O)[C@H]1OC` [MIOCAMYCIN]: the concentration at half-maximal activity (AC50) (in assay [1]; in [2]; on D(3) dopamine receptor; in [3]) was more than 30 µM each time.

With `NS(=O)(=O)c1cc(C(=O)O)cc(N2CCCC2)c1Oc1ccccc1` [PIRETANIDE], the concentration at half-maximal activity (AC50) (in assay [4]; at D(1A) dopamine receptor; at Motilin receptor; in assay [9]; in [5]; in [6]) was more than 30 µM throughout. Moreover, the AC50 (in [7]; in [10]; in [11]; at Adenosine receptor A3 [8]; on Histamine H2 receptor) was more than 30 µM throughout.

Take `CC(C)=CCOc1ccc(/C=C/C(=O)c2ccc(OCC=C(C)C)cc2OCC(=O)O)cc1` [SOFALCONE]: the AC50 in assay [4] was more than 30 µM; at D(1A) dopamine receptor, more than 30 µM; at Motilin receptor it was more than 30 µM; in assay [9], more than 30 µM; in assay [5] it was 13 µM; in assay [6] it was more than 30 µM. The AC50 is 26 µM in assay [7]; more than 30 µM in [10]; more than 30 µM in assay [11]; 5.5 µM on Adenosine receptor A3 [8]; more than 30 µM at Histamine H2 receptor.

Consider `CN(C)c1cc(NC(=O)CNC(C)(C)C)c(O)c2c1C[C@H]1C[C@H]3[C@H](N(C)C)C(O)=C(C(N)=O)C(=O)[C@@]3(O)C(O)=C1C2=O` [TIGECYCLINE], for which the concentration at half-maximal activity (AC50) (in [4]; on D(1A) dopamine receptor; at Motilin receptor; in [9]; in assay [5]; in [6]) was more than 30 µM in each case. Further, the AC50 in [7] is more than 30 µM; in [10], more than 30 µM; in [11], more than 30 µM; on Adenosine receptor A3 [8] it was 26.9 µM; at Histamine H2 receptor, more than 30 µM.

Consider `OCCN1CCN(CC/C=C2/c3ccccc3Sc3ccc(Cl)cc32)CC1` [ZUCLOPENTHIXOL], for which the AC50 in assay [4] is more than 10 µM; at D(1A) dopamine receptor, more than 10 µM; on Motilin receptor, more than 10 µM; in assay [9], more than 10 µM; in assay [5], 1 µM; in assay [6], more than 10 µM. In addition, the AC50 in assay [7] is more than 30 µM; in assay [10] it was more than 10 µM; in assay [11] it was 7.3 µM; at Adenosine receptor A3 [8], more than 10 µM; at Histamine H2 receptor it was more than 10 µM.

As usually defined, the AC50 is the midpoint of the concentration-response curve, whichever way the signal moves. Lower therefore signals greater potency.
